Target: Metabotropic glutamate receptor 2 (Rattus norvegicus, UniProt P31421)
Assay: Inhibition of 1S,3R-ACPD (10 uM) -stimulated GTP gamma 35S binding on rat Metabotropic glutamate receptor 2 transfected in CHO cells
Assay type: cell-based

Metabotropic glutamate receptor 2, sequence (P31421 whole entry): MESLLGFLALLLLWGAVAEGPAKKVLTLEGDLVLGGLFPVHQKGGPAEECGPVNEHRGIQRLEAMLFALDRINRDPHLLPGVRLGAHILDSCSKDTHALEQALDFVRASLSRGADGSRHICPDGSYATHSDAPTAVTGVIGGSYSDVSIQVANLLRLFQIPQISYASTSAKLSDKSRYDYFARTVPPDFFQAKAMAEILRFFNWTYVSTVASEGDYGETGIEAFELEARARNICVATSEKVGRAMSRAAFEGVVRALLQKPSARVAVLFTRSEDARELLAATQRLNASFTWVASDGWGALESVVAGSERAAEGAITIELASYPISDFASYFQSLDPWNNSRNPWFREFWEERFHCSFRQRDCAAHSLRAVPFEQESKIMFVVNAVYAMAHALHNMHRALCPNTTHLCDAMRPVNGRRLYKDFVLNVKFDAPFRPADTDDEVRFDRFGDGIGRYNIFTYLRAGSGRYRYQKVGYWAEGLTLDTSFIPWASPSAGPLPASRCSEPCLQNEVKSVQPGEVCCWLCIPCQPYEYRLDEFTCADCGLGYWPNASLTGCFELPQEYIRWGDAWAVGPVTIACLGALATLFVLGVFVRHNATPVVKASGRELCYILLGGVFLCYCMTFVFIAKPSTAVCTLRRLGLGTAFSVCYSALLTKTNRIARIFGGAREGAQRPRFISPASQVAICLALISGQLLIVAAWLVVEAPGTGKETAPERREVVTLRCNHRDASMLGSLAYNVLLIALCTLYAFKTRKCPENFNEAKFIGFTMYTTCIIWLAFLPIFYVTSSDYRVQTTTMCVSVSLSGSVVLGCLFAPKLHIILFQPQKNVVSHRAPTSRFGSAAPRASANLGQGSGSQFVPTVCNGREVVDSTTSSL

Row | Structure (SMILES) | Ki [µM]
1 | CCC1=C(C(=O)OCCN(C)C)C(c2ccccc2OC)N2C=C(c3c(Cl)cccc3Cl)SC2=N1 (stereo unspecified) | 1
2 | CC1=C(C(=O)OCCN(C)C)C(c2ccccc2Cl)N2C=C(c3c(Cl)cccc3Cl)SC2=N1 (stereo unspecified) | 2
3 | CC1=C(C(=O)OCCN(C)C)C(c2ccccc2OC(C)C)N2C=C(c3c(Cl)cccc3Cl)SC2=N1 (stereo unspecified) | 2
4 | COc1ccccc1C1C(C(=O)OCCN(C)C)=C(C(C)C)N=C2SC(c3c(Cl)cccc3Cl)=CN21 (stereo unspecified) | 4
5 | CCOc1ccccc1C1C(C(=O)OCCN(C)C)=C(C)N=C2SC(c3c(Cl)cccc3Cl)=CN21 (stereo unspecified) | 3
6 | CCOC(=O)C1=C(C)N=C2SC(c3c(Cl)cccc3Cl)=CN2C1c1ccccc1OC (stereo unspecified) | 4
7 | COc1ccccc1C1C(C(=O)OCCN(C)C)=C(C)N=C2SC(c3ccc(Cl)cc3Cl)=CN21 (stereo unspecified) | 1
8 | COc1cccc(C2C(C(=O)OCCN(C)C)=C(C)N=C3SC(c4c(Cl)cccc4Cl)=CN32)c1 (stereo unspecified) | 2
9 | COc1ccccc1C1C(C(=O)OCCN(C)C)=C(C)N=C2SC(c3c(Cl)cccc3Cl)=CN21 (stereo unspecified) | 1.5
10 | COc1ccccc1C1C(C(=O)OCCN(C)C)=C(C(=O)c2ccccc2)N=C2SC(c3c(Cl)cccc3Cl)=CN21 (stereo unspecified) | > 10
11 | COc1ccccc1C1C(C(=O)OCCCN(C)C)=C(C)N=C2SC(c3c(Cl)cccc3Cl)=CN21 (stereo unspecified) | 2.4
12 | CC1=C(C(=O)OCCN(C)C)C(c2ccccc2C)N2C=C(c3c(Cl)cccc3Cl)SC2=N1 (stereo unspecified) | 8
13 | COc1ccccc1C1C(C(=O)NCCN(C)C)=C(C)N=C2SC(c3c(Cl)cccc3Cl)=CN21 (stereo unspecified) | > 10
14 | CC1=C(C(=O)OCCN(C)C)C(c2ccccc2F)N2C=C(c3c(Cl)cccc3Cl)SC2=N1 (stereo unspecified) | 3.2
15 | COc1ccccc1C1C(C(=O)OCCN(C)C)=C(C)N=C2SC(c3ccc(Cl)cc3)=CN21 (stereo unspecified) | 4
16 | COc1ccc(C2C(C(=O)OCCN(C)C)=C(C)N=C3SC(c4c(Cl)cccc4Cl)=CN32)cc1 (stereo unspecified) | 7

— ChEMBL document CHEMBL1131735, “Structure-activity relationships of substituted 5H-thiazolo[3,2-a]pyrimidines as group 2 metabotropic glutamate receptor antagonists” (Bioorg Med Chem Lett, 1999)
